US20240300958A1, “COMPOUNDS AND THE USES AND PHARMACEUTICAL COMPOSITIONS THEREOF” (BEIJING YOUZHUJU NETWORK TECHNOLOGY CO. LTD., priority 2023, published 2024)
Where two headings read alike, the source gives them in different places.

How the values were obtained:
[1] = molecular target: phosphorylated DDR1 (p-DDR1) (Homo sapiens (Human), UniProt Q08345); assay: Inhibition of phosphorylated DDR1 (p-DDR1) in T47D cells stimulated with rat tail collagen (western blot); format: cell-based
Description: Human breast ductal carcinoma cell line T47D cells were inoculated in a 6-well plate and incubated overnight at 37° C. and 5% CO2. After the cells are prepared, 2 μL of Compound C1 (DMSO solution of gradient concentrations) was added to a cell plate which was incubated at 37° C. and 5% CO2 for 24 hours. Rat tail collagen (capable of stimulating DDR1 phosphorylation) was added to the cell plate followed by incubation for 2 hours at 37° C. and 5% CO2. Harvest of cell lysates: culture medium was aspirated as much as possible at the end of the culture until the wells were almost dry. 200 μL of ice-cold lysis buffer was added. Lysate was collected into a 1.5 mL eppendorf tube through scraping. Brief vortex was followed by spin at 12000 rpm for 15 minutes in a refrigerated centrifuge. 5× protein electrophoresis loading buffer was added and then the sample was boiled. The sample supernatant was added to a SDS-PAGE gel, followed by electrophoresis, electrotransfer, blocking, primary antibody (anti-phospho-DDR1 antibody and anti-GAPDH antibody) incubation, washing, secondary antibody incubation, washing, and fluorescence development.

p70S6K = p70S6K (Homo sapiens (Human), UniProt P23443); assay: Kinase inhibition profile (HTRF / ADP Glo kinase assay); format: biochemical
Description: (§1) HTRF kinase assay: 2×ATP and substrate solution as well as 2× kinase and metal solution were prepared with assay buffer. 25 nL of compound was transferred to 384-well assay plate by Echo 655. After centrifugation, 2.5 μL of 2× kinase/metal ion solution was added to the 384-well assay plate followed by incubation at 25° C. for 10 min. 2.5 μL of 2× substrate and ATP solution was added to the wells followed by incubation at 25° C. for 60 min. 2× XL665 and antibody solution was prepared with assay buffer. 5 μL of kinase detection reagent was added to the wells followed by incubation at 25° C. for 60 min. Fluorescence signals at 620 nm (Cryptate) and 665 nm (XL665) were read with a microtiter plate reader. ADP Glo kinase assay: 2×ATP and substrate solution as well as 2× kinase and metal solution were prepared with assay buffer. 20 nL of compound was transferred to 384-well assay plate by Echo 655. 2 μL of 2× kinase/metal ion solution was added followed by incubation at 25° C. for 10 min in the 384-well assay plate. 2 μL of 2× substrate and ATP solution was added to the wells followed by incubation at 25° C. for 60 min. 4 μL of ADP Glo reagent was added to the wells followed by incubation at 25° C. for 40 min. 8 μL of kinase test reagent was added to the wells followed by incubation at 25° C. for 40 min. The luminescence signals were recorded on a microtiter plate reader. Data analysis: the reaction control (0.5% DMSO) reading was set to 0% inhibition, and the background (10 μM positive control) reading was set to 100% inhibition, then the percent inhibition for each test solution was calculated and the results are shown in Table 2 and FIG. 3.

HGK = HGK (Homo sapiens (Human), UniProt O95819); assay: as above; format: biochemical
Description: as §1

FGFR1 = FGFR1 (Homo sapiens (Human), UniProt P11362); assay: as above; format: biochemical
FGFR1, sequence (P11362 22-822, species assumed): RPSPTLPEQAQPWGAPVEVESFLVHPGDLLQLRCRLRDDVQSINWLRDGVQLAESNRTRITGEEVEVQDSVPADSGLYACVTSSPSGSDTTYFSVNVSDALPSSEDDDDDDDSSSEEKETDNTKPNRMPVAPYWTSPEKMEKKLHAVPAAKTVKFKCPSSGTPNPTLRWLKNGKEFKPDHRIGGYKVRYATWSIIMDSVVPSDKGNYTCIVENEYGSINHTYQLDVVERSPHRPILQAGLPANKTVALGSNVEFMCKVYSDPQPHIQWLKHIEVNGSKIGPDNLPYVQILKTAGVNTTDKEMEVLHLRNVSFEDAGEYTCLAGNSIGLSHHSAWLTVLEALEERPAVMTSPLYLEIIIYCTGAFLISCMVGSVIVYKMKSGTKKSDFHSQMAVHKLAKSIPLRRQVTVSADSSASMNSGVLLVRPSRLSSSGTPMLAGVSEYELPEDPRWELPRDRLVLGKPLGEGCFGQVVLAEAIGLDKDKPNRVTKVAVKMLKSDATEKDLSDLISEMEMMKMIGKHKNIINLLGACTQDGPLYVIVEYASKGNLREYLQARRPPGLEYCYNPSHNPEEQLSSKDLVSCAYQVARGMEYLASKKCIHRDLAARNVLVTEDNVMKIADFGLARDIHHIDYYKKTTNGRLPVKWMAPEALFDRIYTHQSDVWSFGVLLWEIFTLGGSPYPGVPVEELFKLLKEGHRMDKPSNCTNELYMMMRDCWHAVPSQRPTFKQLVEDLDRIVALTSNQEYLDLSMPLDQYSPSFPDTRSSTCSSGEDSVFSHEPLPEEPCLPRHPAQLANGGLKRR
Description: as §1

CDK1/CycE1 = CDK1/CycE1 (Homo sapiens (Human), UniProt P06493); assay: as above; format: biochemical
Description: as §1

CDK18/CyclinY = CDK18/CyclinY (Homo sapiens (Human), UniProt Q07002); assay: as above; format: biochemical
CDK18/CyclinY, sequence (Q07002 whole entry, species assumed): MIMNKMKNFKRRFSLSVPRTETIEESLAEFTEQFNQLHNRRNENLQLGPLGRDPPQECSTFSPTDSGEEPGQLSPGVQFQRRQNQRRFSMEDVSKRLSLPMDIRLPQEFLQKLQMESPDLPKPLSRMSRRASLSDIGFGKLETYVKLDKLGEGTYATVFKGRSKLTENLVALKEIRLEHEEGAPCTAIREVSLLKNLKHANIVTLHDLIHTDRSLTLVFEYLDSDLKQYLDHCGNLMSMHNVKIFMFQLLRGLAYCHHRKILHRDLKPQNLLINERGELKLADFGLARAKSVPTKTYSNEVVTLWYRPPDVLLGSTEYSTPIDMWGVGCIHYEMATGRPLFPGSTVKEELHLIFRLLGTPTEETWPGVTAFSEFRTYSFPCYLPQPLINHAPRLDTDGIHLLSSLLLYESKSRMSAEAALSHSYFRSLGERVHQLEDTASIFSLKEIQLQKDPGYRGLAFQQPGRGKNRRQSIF
CDK18/CyclinY, sequence (Q8ND76 whole entry partner, species assumed): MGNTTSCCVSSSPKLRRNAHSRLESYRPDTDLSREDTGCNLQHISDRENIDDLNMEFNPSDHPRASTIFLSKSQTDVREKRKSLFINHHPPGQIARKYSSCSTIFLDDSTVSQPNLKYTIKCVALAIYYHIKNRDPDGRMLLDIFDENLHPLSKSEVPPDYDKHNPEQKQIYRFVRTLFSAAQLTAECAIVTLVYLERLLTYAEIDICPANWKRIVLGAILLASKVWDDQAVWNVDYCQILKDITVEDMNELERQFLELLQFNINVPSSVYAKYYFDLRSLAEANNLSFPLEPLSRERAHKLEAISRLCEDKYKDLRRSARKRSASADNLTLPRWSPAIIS
Description: as §1

AXL = AXL (Homo sapiens (Human), UniProt P30530); assay: as above; format: biochemical
Description: as §1

PKACα = PKACα (Homo sapiens (Human), UniProt P17612); assay: as above; format: biochemical
Description: as §1

IGF1R = IGF1R (Homo sapiens (Human), UniProt P08069); assay: as above; format: biochemical
IGF1R, sequence (P08069 31-1367, species assumed): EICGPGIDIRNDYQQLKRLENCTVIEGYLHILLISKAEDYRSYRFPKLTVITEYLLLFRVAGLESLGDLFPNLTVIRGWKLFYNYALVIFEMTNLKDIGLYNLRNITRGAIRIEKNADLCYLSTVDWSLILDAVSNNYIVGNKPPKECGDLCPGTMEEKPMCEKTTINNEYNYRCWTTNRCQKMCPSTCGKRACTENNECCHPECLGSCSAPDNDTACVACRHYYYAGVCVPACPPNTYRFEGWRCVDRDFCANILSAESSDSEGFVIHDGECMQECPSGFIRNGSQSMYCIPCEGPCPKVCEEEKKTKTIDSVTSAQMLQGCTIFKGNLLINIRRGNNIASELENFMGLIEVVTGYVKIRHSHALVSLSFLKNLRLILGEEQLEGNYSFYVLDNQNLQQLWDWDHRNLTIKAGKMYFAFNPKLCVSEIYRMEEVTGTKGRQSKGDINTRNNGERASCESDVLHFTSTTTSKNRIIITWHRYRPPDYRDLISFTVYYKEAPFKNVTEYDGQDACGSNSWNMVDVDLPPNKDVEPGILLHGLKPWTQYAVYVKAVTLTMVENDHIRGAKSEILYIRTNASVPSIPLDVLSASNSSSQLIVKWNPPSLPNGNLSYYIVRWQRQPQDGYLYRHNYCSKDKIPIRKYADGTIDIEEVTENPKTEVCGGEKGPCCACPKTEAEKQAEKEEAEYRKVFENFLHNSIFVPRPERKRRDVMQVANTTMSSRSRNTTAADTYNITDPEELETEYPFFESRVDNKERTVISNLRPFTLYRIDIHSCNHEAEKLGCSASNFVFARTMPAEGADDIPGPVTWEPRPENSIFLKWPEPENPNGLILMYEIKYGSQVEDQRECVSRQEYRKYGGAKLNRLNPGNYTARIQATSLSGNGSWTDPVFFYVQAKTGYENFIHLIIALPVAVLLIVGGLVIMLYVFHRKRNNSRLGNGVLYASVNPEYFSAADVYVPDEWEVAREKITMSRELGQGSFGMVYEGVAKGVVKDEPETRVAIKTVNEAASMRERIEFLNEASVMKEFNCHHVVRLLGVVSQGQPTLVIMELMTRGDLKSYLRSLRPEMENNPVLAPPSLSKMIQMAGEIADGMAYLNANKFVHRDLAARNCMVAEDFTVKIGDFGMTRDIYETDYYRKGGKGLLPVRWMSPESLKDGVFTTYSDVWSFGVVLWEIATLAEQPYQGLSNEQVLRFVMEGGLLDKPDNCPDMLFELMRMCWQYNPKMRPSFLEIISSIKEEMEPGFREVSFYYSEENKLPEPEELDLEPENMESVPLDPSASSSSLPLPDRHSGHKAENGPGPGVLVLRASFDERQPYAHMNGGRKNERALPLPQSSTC
Description: as §1

MET = MET (Homo sapiens (Human), UniProt P08581); assay: as above; format: biochemical
Description: as §1

CHK2 = CHK2 (Homo sapiens (Human), UniProt O96017); assay: as above; format: biochemical
CHK2, sequence (O96017 whole entry, species assumed): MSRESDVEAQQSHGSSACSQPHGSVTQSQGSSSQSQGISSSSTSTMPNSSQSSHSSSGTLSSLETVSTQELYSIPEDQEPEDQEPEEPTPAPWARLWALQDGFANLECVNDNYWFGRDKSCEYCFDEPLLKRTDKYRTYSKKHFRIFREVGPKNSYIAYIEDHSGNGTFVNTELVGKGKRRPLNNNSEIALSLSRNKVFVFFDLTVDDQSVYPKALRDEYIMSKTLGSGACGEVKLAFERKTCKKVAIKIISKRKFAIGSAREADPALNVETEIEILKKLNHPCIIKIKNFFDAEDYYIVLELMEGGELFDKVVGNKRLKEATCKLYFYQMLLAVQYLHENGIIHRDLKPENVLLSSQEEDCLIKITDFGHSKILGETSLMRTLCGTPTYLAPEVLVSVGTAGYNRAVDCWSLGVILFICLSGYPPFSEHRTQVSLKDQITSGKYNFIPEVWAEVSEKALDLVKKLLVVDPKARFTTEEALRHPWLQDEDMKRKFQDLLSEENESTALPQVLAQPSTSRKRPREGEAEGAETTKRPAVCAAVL
Description: as §1

AKT1 = AKT1 (Homo sapiens (Human), UniProt P31749); assay: as above; format: biochemical
Description: as §1

CK2α1/β = CK2α1/β (Homo sapiens (Human), UniProt P68400); assay: as above; format: biochemical
CK2α1/β, sequence (P68400 whole entry): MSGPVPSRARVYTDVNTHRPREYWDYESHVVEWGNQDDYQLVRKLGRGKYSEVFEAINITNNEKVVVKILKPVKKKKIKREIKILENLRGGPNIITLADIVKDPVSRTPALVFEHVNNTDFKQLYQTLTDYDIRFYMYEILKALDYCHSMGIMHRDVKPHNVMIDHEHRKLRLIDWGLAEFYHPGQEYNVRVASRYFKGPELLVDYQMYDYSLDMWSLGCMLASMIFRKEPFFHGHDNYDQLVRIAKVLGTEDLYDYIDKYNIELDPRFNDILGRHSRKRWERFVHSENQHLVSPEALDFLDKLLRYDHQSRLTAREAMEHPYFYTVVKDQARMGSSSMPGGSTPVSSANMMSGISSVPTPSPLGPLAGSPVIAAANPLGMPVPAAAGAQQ
CK2α1/β, sequence (P67870 whole entry partner): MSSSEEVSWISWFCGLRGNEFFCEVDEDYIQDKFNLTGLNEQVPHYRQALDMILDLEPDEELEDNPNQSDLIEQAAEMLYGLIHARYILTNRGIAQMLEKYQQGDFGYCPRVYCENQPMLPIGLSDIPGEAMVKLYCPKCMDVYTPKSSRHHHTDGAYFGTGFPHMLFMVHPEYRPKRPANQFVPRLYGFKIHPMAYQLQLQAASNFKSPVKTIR
Description: as §1

TRKB = TRKB (Homo sapiens (Human), UniProt Q16620); assay: as above; format: biochemical
TRKB, sequence (Q16620 32-822, species assumed): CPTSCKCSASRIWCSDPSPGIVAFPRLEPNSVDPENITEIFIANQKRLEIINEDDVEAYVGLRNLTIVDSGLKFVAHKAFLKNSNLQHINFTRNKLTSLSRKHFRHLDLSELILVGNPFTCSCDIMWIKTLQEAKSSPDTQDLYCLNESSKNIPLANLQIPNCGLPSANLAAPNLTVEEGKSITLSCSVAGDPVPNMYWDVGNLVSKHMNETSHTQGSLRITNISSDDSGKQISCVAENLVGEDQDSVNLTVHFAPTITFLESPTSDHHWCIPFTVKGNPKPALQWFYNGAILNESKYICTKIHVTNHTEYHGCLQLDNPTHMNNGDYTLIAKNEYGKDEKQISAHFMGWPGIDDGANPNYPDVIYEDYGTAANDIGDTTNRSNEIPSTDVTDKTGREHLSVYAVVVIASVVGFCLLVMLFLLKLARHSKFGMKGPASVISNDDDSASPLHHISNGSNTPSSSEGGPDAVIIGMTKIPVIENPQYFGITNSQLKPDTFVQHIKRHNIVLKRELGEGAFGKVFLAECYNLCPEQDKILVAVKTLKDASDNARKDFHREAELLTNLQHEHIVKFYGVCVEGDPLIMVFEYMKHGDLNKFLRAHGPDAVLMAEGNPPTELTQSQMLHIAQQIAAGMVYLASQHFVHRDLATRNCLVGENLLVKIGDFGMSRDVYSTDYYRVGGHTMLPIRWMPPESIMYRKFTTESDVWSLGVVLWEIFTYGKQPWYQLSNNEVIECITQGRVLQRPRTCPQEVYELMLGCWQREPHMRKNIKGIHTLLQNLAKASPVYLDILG
Description: as §1

[2] = 1 uM Compound C1, read-out: % Inhibition (First measurement)
[3] = 1 uM Compound C1, read-out: % Inhibition (Second measurement)
[4] = 1 uM Compound C1, read-out: Average inhibition (%)

Cc1ccc(C(=O)Nc2ccccn2)cc1C#Cc1cnc2cc(C3=CCCCC3)cnn12 [Compound C1, 3-{2-[7-(cyclohex-1-en-1-yl)imidazo[1,2-b]pyridazin-3-yl]ethynyl}-4-methyl-N-(pyridin-2-yl)benzamide]
Inhibition of the phosphorylation of DDR1 at the cellular level (in words) [1]: can inhibit the phosphorylation of DDR1 at the cellular level | Ratio of p-DDR1 to GAPDH ([1]; compound C1 1.5 nM): 0.3282 | inhibition at 0.0015 µM ([1]; compound C1 1.5 nM): 51.5% | p-DDR1 signal ([1]; compound C1 1.5 nM): 490770 | Ratio of p-DDR1 to GAPDH ([1]; compound C1 4.6 nM): 0.2221 | inhibition at 0.0046 µM ([1]; compound C1 4.6 nM): 67.7% | p-DDR1 signal ([1]; compound C1 4.6 nM): 350490 | Ratio of p-DDR1 to GAPDH ([1]; compound C1 13.7 nM): 0.3020 | inhibition at 0.0137 µM ([1]; compound C1 13.7 nM): 55.5% | p-DDR1 signal ([1]; compound C1 13.7 nM): 417870 | Ratio of p-DDR1 to GAPDH ([1]; compound C1 41.1 nM): 0.4145 | inhibition at 0.0411 µM ([1]; compound C1 41.1 nM): 38.4% | p-DDR1 signal ([1]; compound C1 41.1 nM): 583470 | Ratio of p-DDR1 to GAPDH ([1]; compound C1 123 nM): 0.2107 | inhibition at 0.123 µM ([1]; compound C1 123 nM): 69.4% | p-DDR1 signal ([1]; compound C1 123 nM): 313140 | Ratio of p-DDR1 to GAPDH ([1]; compound C1 370 nM): 0.1244 | inhibition at 0.37 µM ([1]; compound C1 370 nM): 82.5% | p-DDR1 signal ([1]; compound C1 370 nM): 164340 | Ratio of p-DDR1 to GAPDH ([1]; compound C1 1111 nM): 0.0363 | inhibition at 1.111 µM ([1]; compound C1 1111 nM): 95.9% | p-DDR1 signal ([1]; compound C1 1111 nM): 51870 | Ratio of p-DDR1 to GAPDH ([1]; compound C1 3333 nM): 0.0183 | inhibition at 3.333 µM ([1]; compound C1 3333 nM): 98.7% | p-DDR1 signal ([1]; compound C1 3333 nM): 27360 | Ratio of p-DDR1 to GAPDH ([1]; compound C1 10000 nM): 0.0094 | inhibition at 10 µM ([1]; compound C1 10000 nM): 100% | p-DDR1 signal ([1]; compound C1 10000 nM): 14730 | inhibition at 1 µM (p70S6K; [2]): 0.46% | inhibition at 1 µM (p70S6K; [3]): -0.19% | inhibition at 1 µM (p70S6K; [4]): 0.14% | inhibition at 1 µM (HGK; [2]): 18.5% | inhibition at 1 µM (HGK; [3]): 17% | inhibition at 1 µM (HGK; [4]): 17.7% | inhibition at 1 µM (FGFR1; [2]): 0.18% | inhibition at 1 µM (FGFR1; [3]): -18.2% | inhibition at 1 µM (FGFR1; [4]): -9.02% | inhibition at 1 µM (CDK1/CycE1; [2]): 11.9% | inhibition at 1 µM (CDK1/CycE1; [3]): 20.1% | inhibition at 1 µM (CDK1/CycE1; [4]): 16% | inhibition at 1 µM (CDK18/CyclinY; [2]): 18% | inhibition at 1 µM (CDK18/CyclinY; [3]): 2.55% | inhibition at 1 µM (CDK18/CyclinY; [4]): 10.3% | inhibition at 1 µM (AXL; [2]): 15.1% | inhibition at 1 µM (AXL; [3]): 13.3% | inhibition at 1 µM (AXL; [4]): 14.2% | inhibition at 1 µM (PKACα; [2]): -4.44% | inhibition at 1 µM (PKACα; [3]): -1.87% | inhibition at 1 µM (PKACα; [4]): -3.15% | inhibition at 1 µM (IGF1R; [2]): -0.05% | inhibition at 1 µM (IGF1R; [3]): -2.29% | inhibition at 1 µM (IGF1R; [4]): -1.17% | inhibition at 1 µM (MET; [2]): -11.9% | inhibition at 1 µM (MET; [3]): -15.8% | inhibition at 1 µM (MET; [4]): -13.9% | inhibition at 1 µM (CHK2; [2]): 0.35% | inhibition at 1 µM (CHK2; [3]): 7.34% | inhibition at 1 µM (CHK2; [4]): 3.85% | inhibition at 1 µM (AKT1; [2]): 7.17% | inhibition at 1 µM (AKT1; [3]): 4.56% | inhibition at 1 µM (AKT1; [4]): 5.87% | inhibition at 1 µM (CK2α1/β; [2]): -5.19% | inhibition at 1 µM (CK2α1/β; [3]): 5.01% | inhibition at 1 µM (CK2α1/β; [4]): -0.09% | inhibition at 1 µM (TRKB; [2]): 20.8% | inhibition at 1 µM (TRKB; [3]): 40.4% | inhibition at 1 µM (TRKB; [4]): 30.6%
